Results reported in US10815235B2, “Polycyclic compounds and uses thereof” (priority 2017, dated 2020).
Where two headings read alike, the source gives them in different places.

What was measured:
[1] = biological target: Serotonin 5-HT1D receptor (Homo sapiens, UniProt P28221); experiment: GTPγS Scintillation Proximity Assay, agonist and antagonist mode; assay type: biochemical
Procedure: Antagonist and agonist activities were determined using a GTPγS Scintillation Proximity Assay. The assay was prepared as follows: Membrane extracts were prepared from recombinant human Dopamine D2L, D3; Serotonin 5-HT1A, 5-HT1B, 5-HT1D and 5-HT1F receptors.
Samples were tested by proprietary biological assays by Ogeda S. A., Euroscreen FAST Business Unit, Rue Adrienne Bolland, 47 B-6041 Gosselies, Belgium. Each protein assay was prepared using the following conditions.
5-HT1D • Assay buffer: 20 mM HEPES pH 7.4; 200 mM NaCl, 10 μg/ml saponin, 3 mM MgCl2; • Membranes: recombinant 5-HT1D membrane extracts thawed on ice and diluted in assay buffer to give […] and kept on ice; • GDP: diluted in assay buffer to give a 30 μM working solution (3 μM final concentration); • Beads: PVT-WGA (Perkin Elmer, RPNQ001), diluted in assay buffer at 50 mg/ml (0.5 mg/10 μl); and • GTPγ^35S: (PerkinElmer NEG030X), diluted in assay buffer to give 0.1 nM.
Membranes were mixed with GDP (volume:volume 1:1) and incubated for at least 15 min on ice. In parallel, GTPγ[^35S] is mixed with the beads (volume:volume 1:1) just before starting the reaction.
To determine agonist activity, the following reagents were added in the wells of an Optiplate (Perkin Elmer): 50 μL of test or reference ligand, 10 μL of assay buffer, 20 μl of the membranes:GDP mix, and 20 μL of the GTPγ[^35S]:beads mix. EC50 values were used to determine whether a compound acted as an agonist.
To determine antagonist activity, the following reagents were added in the wells of an Optiplate (Perkin Elmer): 50 μL of test or reference ligand, 20 μL of the membranes:GDP mix, then the plate is incubated 15 minutes at room temperature. After incubation, 10 μL of reference agonist at historical EC80 (final concentration) was added, followed by 20 μL of the GTPγ[^35S]:beads mix.
The plates were covered with a top seal, mixed on an orbital shaker for 2 min, and then incubated for 1 hour at room temperature. Then the plates were centrifuged for 10 min at 2000 rpm, incubated at room temperature 1 hour and counted for 1 min/well with a PerkinElmer TopCount reader. IC50 values were used to determine whether a compound acted as an antagonist.

[2] = biological target: T1, Serotonin 5-HT2B receptor (Homo sapiens, UniProt P41595); experiment: IPOne HTRF assay, agonist and antagonist mode; assay type: cell-based
T1 construct: expressed in transfected cells; host or cells: CHO-K1
Procedure: Antagonist and agonist activities were determined using an IPOne […] HTRF assay. The assay was prepared as follows: CHO-K1 cells expressing human recombinant Adrenergic α1A, Serotonin 5-HT2A, and 5-HT2B receptors grown to mid-log phase in culture media without antibiotics were detached with PBS-EDTA, centrifuged and resuspended in medium without antibiotics buffer. 20,000 cells were distributed in a 96 well plate and incubated overnight at 37° C. with 5% CO2.
To analyze agonist activity, the medium was removed and 20 μl of assay buffer plus 20 μl of test compound or reference agonist were added in each well. The plate was incubated for 60 min. at 37° C. with 5% CO2. EC50 values were used to determine whether a compound acted as an agonist.
To analyze antagonist activity, 20 μl of test compound or reference antagonist was added and the plate is incubated for 15 min. at 37° C. in a humidified atmosphere of 95% air with 5% CO2, then 20 μl of reference agonist at a final concentration corresponding to the historical EC80 is added. The plate is incubated for 60 min. at 37° C. with 5% CO2. IP1-D2 reagent and anti-IP1 cryptate reagents are then dispensed in the wells and IP1 concentrations are then measured following the manufacturer recommendations. IC50 values were used to determine whether a compound acted as an antagonist.

Serotonin 5-HT1D receptor, sequence (P28221 whole entry): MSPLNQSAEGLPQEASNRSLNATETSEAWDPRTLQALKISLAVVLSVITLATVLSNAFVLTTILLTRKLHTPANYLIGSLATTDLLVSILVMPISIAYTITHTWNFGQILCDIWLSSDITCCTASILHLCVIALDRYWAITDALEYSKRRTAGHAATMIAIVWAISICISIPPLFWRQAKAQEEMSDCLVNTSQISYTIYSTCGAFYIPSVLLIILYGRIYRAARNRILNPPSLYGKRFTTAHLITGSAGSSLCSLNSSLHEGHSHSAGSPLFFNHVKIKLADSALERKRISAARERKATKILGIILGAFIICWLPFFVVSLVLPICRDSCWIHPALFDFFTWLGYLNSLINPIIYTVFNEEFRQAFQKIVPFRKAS
T1 sequence (P41595 whole entry): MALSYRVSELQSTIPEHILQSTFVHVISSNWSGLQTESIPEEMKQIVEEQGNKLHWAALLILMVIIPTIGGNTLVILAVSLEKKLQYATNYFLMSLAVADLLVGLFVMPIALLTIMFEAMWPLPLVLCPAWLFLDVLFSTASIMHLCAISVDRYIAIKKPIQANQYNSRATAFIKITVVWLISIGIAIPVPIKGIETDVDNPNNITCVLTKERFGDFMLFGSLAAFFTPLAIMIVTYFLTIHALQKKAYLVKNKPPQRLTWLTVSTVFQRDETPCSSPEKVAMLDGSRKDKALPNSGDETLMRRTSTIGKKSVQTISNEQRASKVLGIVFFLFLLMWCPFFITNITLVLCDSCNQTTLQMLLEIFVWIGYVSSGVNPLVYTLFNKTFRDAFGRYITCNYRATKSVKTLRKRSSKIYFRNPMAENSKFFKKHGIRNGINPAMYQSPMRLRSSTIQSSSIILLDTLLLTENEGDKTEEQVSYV

Compound: CC[C@@H](CO)NC(=O)[C@@H]1C=C2c3cccc4c3c(c(C3CC3)n4C)C[C@H]2N(C)C1 [Compound D13, (6aR,9R)-5-cyclopropyl-N—((S)-1-hydroxybutan-2-yl)-4,7-dimethyl-4,6,6a,7,8,9-hexahydroindolo[4,3-fg]quinoline-9-carboxamide]
- EC50 ([1]; Agonist Activity (EC50), 5-HT1D, membrane extracts): 730 nM
- EC50 ([1]; EC50 value for the Serotonin 5-HT1D receptor, agonist mode, bound stated): < 1000 nM
- IC50 ([2]; CHO-K1 cells, vs reference agonist at EC80, read-out: Antagonist Activity (IC50), 5-HT2B): 140 nM
- IC50 ([2]; antagonist mode, bound stated, read-out: IC50 value for the Serotonin 5-HT2B receptor): < 1000 nM
